Assay results as given in patent US20060275520A1, “White peony extract for improving the duration and quality of sleep” (Access Business Group International LLC, priority 2005, published 2006).

Biological target: GABA-A receptors
Test: GABA-A Agonist binding assay (NovaScreen), [3H]-GABA displacement
Set-up: species or system bovine
Details: converted from μg/ml; read-out: IC50 for paeoniflorin converted to molarity
Protocol: These GABA-A Agonist assays were conducted by NovaScreen Biosciences Corporation (Hanover, Md.) and are described in Falch E., et al., 1986. […] 47(3): 898-903 and Enna S. J., et al., 1977.
(§1) In particular, the GABA-A Agonist binding assays use bovine cerebellar membranes as the source of GABA-A receptors. GABA-A, radio labeled with tritium (^3H), is used as both the reference compound and positive control.
The bovine cerebellar membranes are exposed to both [^3H]-GABA and extracts of the desired test substance. In this instance, the bovine cerebellar membranes were exposed to: six extracts of white peony root at concentrations of 0.01, 0.03, 0.1, 0.3, 1, 3, and 10 μg/ml. The GABA-A Agonist assay measures how much radio labeled GABA-A binds to the GABA-A receptors present in the bovine cerebellar membranes.
The results of the GABA-A Agonist binding assays are shown in FIGS. 19-24 and are expressed below in Table I as IC50 in μg/ml.
as §1, with “control. The bovine cerebellar membranes are exposed to both [^3H]-GABA and extracts of the desired test substance. […]” for “control.”

**Q.** Which IC50 does the source give for `C[C@@]12C[C@@]3(O)O[C@@H](O1)[C@]1(COC(=O)c4ccccc4)[C@H]3C[C@@]12O[C@@H]1O[C@H](CO)[C@@H](O)[C@H](O)[C@H]1O` [paeoniflorin] here?
**A.** ~0.625 µM
